Source: patent publication US10165776B2, “Substituted pyrazolylpyrazole derivative and use of same as herbicide” (KYOYU AGRI CO., LTD., priority 2015, dated 2019)

Tests used:
Type in all cases: in vivo
Amaranthus retroflexus [1] = assay: Farming soil treatment test; settings: soil surface spray prior to weed growth, 30 days at 30° C.
Experimental: (§1) Field soil was filled into a 1/6000 are pot followed by seeding with Digitaria ciliaris, Chenopodium album and Amaranthus retroflexus and covering with soil. Wettable powders of compounds of formula (I) shown in Table 1 prepared in compliance with the preparation examples were diluted with water to the prescribed amount of chemical and uniformly sprayed onto each soil surface layer using 100 liters of sprayed water per 10 are prior to weed growth following seeding. After treating for 30 days in a glass greenhouse at an average atmospheric temperature of 30° C., the herbicidal efficacy thereof was investigated. Evaluation of herbicidal efficacy was carried out in the same manner as the above-mentioned Test Example 1.

Chenopodium album [2] = assay: Farming soil treatment test; settings: soil surface spray prior to weed growth, 30 days at 30° C.
Experimental: as §1

Digitaria ciliaris [3] = assay: Farming soil treatment test; settings: soil surface spray prior to weed growth, 30 days at 30° C.
Experimental: as §1

Scirpus juncoides = assay: Paddy herbicidal activity test; settings: irrigated pot, treated at 3.5 leaf stage of Echinochloa crus-galli, 30 days at 30° C.
Experimental: (§2) Rice paddy soil was filled into a 1/10000 are pot followed by the addition of suitable amounts of water and chemical fertilizer, kneading, seeding with Echinochloa crus-galli, Monochoria vaginalis and Scirpus juncoides and maintaining in an irrigated state at a water depth of 3 cm. Wettable powders of Target Compound (I) shown in Table 1 prepared in compliance with the preparation examples were diluted with a suitable amount of water, rice plants in the 2.0 leaf stage were transplanted during 3.5 leaf stage of Echinochloa crus-galli, and treated by dropping in chemical in the prescribed amount per 10 are using a pipette. After treating for 30 days in a glass greenhouse at an average atmospheric temperature of 30° C., the herbicidal efficacy thereof was investigated. Evaluation of herbicidal efficacy was carried out by comparing growth inhibition rate (%) with an untreated group, while evaluation of phytotoxicity was carried out by comparing growth inhibition rate (%) with the state of a complete eradication group, and were evaluated at 11 levels indicated below.

Monochoria vaginalis = assay: Paddy herbicidal activity test; settings: irrigated pot, treated at 3.5 leaf stage of Echinochloa crus-galli, 30 days at 30° C.
Experimental: as §2

Echinochloa crus-galli = assay: Paddy herbicidal activity test; settings: irrigated pot, treated at 3.5 leaf stage of Echinochloa crus-galli, 30 days at 30° C.
Experimental: as §2

Amaranthus retroflexus [4] = assay: Weed foliar treatment test (Test 3, 1.0 to 2.0 leaf stage); settings: foliar spray at 1.0 to 2.0 leaf stage of Digitaria ciliaris, 3 weeks at 25° C.
Experimental: (§3) Soil was filled into a 1/6000 are pot followed by seeding with Digitaria ciliaris, Chenopodium album and Amaranthus retroflexus, covering with soil, and cultivating in a glass greenhouse at an average atmospheric temperature of 25° C. Wettable powders of Target Compound (I) shown in Table 1 prepared in compliance with the preparation examples were diluted with water to the prescribed amount of chemical and uniformly sprayed onto the weeds using 150 liters of sprayed water per 10 are when Digitaria ciliaris had grown to the 1.0 to 2.0 leaf stage. After treating for 3 weeks in a glass greenhouse at an average atmospheric temperature of 25° C., the herbicidal efficacy thereof was investigated. Evaluation of herbicidal efficacy was carried out in the same manner as the above-mentioned Test Example 1.

Chenopodium album [5] = assay: as above; settings: foliar spray at 1.0 to 2.0 leaf stage of Digitaria ciliaris, 3 weeks at 25° C.
Experimental: as §3

Digitaria ciliaris [6] = assay: as above; settings: foliar spray at 1.0 to 2.0 leaf stage of Digitaria ciliaris, 3 weeks at 25° C.
Experimental: as §3

Oryza sativa = assay: Paddy herbicidal activity test, phytotoxicity to transplanted rice; settings: rice transplanted at 2.0 leaf stage, 30 days at 30° C.
Experimental: as §2

Galinsoga parviflora = assay: Weed foliar treatment test (Test 4, 4.0 to 5.0 leaf stage); settings: 10 g a.i./10 a; foliar spray at 4.0 to 5.0 leaf stage of Digitaria ciliaris (plant height 10 cm to 15 cm); 20 days at 25° C.
Experimental: (§4) Field soil was filled into a 1/4500 are pot followed by seeding with Digitaria ciliaris and Galinsoga parviflora, covering with soil and cultivating in a glass greenhouse at an average atmospheric temperature of 25° C. Wettable powders of Target Compound (I) shown in Table 1 prepared in compliance with the preparation examples were diluted with water to the prescribed amount of chemical and uniformly sprayed onto the weeds using 100 liters of sprayed water per 10 are when Digitaria ciliaris had grown to the 4.0 to 5.0 leaf stage (plant height: 10 cm to 15 cm). After treating for 20 days in a glass greenhouse at an average atmospheric temperature of 25° C., the herbicidal efficacy thereof was investigated. Evaluation of herbicidal efficacy was carried out in the same manner as the above-mentioned Test Example 1.

Digitaria ciliaris [7] = assay: as above; settings: 10 g a.i./10 a; foliar spray at 4.0 to 5.0 leaf stage of Digitaria ciliaris (plant height 10 cm to 15 cm); 20 days at 25° C.
Experimental: as §4

SMILES	herbicidal efficacy, Amaranthus retroflexus (Amaranthus retroflexus [1]; 5 g a.i./10 a)	herbicidal efficacy, Amaranthus retroflexus (Amaranthus retroflexus [1]; 10 g a.i./10 a)	herbicidal efficacy, Chenopodium album (Chenopodium album [2]; 5 g a.i./10 a)	herbicidal efficacy, Chenopodium album (Chenopodium album [2]; 10 g a.i./10 a)	herbicidal efficacy, Digitaria ciliaris (Digitaria ciliaris [3]; 5 g a.i./10 a)	herbicidal efficacy, Digitaria ciliaris (Digitaria ciliaris [3]; 10 g a.i./10 a)	herbicidal efficacy, Scirpus juncoides (Scirpus juncoides; 1 g a.i./10 a)	herbicidal efficacy, Scirpus juncoides (Scirpus juncoides; 5 g a.i./10 a)	herbicidal efficacy, Monochoria vaginalis (Monochoria vaginalis; 1 g a.i./10 a)	herbicidal efficacy, Monochoria vaginalis (Monochoria vaginalis; 5 g a.i./10 a)	herbicidal efficacy, Echinochloa crus-galli (Echinochloa crus-galli; 1 g a.i./10 a)	herbicidal efficacy, Echinochloa crus-galli (Echinochloa crus-galli; 5 g a.i./10 a)	herbicidal efficacy, Amaranthus retroflexus (Amaranthus retroflexus [4]; 5 g a.i./10 a)	herbicidal efficacy, Amaranthus retroflexus (Amaranthus retroflexus [4]; 10 g a.i./10 a)	herbicidal efficacy, Chenopodium album (Chenopodium album [5]; 5 g a.i./10 a)	herbicidal efficacy, Chenopodium album (Chenopodium album [5]; 10 g a.i./10 a)	herbicidal efficacy, Digitaria ciliaris (Digitaria ciliaris [6]; 5 g a.i./10 a)	herbicidal efficacy, Digitaria ciliaris (Digitaria ciliaris [6]; 10 g a.i./10 a)	phytotoxicity, Oryza sativa (Oryza sativa; 1 g a.i./10 a)	phytotoxicity, Oryza sativa (Oryza sativa; 5 g a.i./10 a)	also measured
Cc1ccccc1CC(=O)Nc1c(C#N)cnn1-c1nn2c(c1Cl)CCCC2 [Compound 6]	9 (9: 90% to less than 100%)	9 (9: 90% to less than 100%)	9 (9: 90% to less than 100%)	10 (10: 100%)	9 (9: 90% to less than 100%)	9 (9: 90% to less than 100%)	10 (10: 100%)	10 (10: 100%)	10 (10: 100%)	10 (10: 100%)	10 (10: 100%)	10 (10: 100%)	10 (10: 100%)	10 (10: 100%)	10 (10: 100%)	10 (10: 100%)	10 (10: 100%)	10 (10: 100%)	1 (1: 10% to less than 20%)	1 (1: 10% to less than 20%)	herbicidal efficacy, Galinsoga parviflora (Galinsoga parviflora): 10 (10: 100%); herbicidal efficacy, Digitaria ciliaris (Digitaria ciliaris [7]): 10 (10: 100%)
Cc1cccc(CC(=O)Nc2c(C#N)cnn2-c2nn3c(c2Cl)CCCC3)c1 [Compound 9]	9 (9: 90% to less than 100%)	10 (10: 100%)	9 (9: 90% to less than 100%)	10 (10: 100%)	9 (9: 90% to less than 100%)	9 (9: 90% to less than 100%)	9 (9: 90% to less than 100%)	9 (9: 90% to less than 100%)	9 (9: 90% to less than 100%)	10 (10: 100%)	9 (9: 90% to less than 100%)	9 (9: 90% to less than 100%)	10 (10: 100%)	10 (10: 100%)	10 (10: 100%)	10 (10: 100%)	10 (10: 100%)	10 (10: 100%)	0 (0 (exponent): 0% to less than 10% (growth inhibition rate))	0 (0 (exponent): 0% to less than 10% (growth inhibition rate))	herbicidal efficacy, Galinsoga parviflora (Galinsoga parviflora): 10 (10: 100%); herbicidal efficacy, Digitaria ciliaris (Digitaria ciliaris [7]): 10 (10: 100%)
N#Cc1cnn(-c2nn3c(c2Cl)CCCC3)c1NC(=O)Cc1cccc(F)c1 [Compound 11]	9 (9: 90% to less than 100%)	9 (9: 90% to less than 100%)	10 (10: 100%)	10 (10: 100%)	9 (9: 90% to less than 100%)	10 (10: 100%)	9 (9: 90% to less than 100%)	10 (10: 100%)	9 (9: 90% to less than 100%)	9 (9: 90% to less than 100%)	9 (9: 90% to less than 100%)	10 (10: 100%)	10 (10: 100%)	10 (10: 100%)	10 (10: 100%)	10 (10: 100%)	10 (10: 100%)	10 (10: 100%)	0 (0 (exponent): 0% to less than 10% (growth inhibition rate))	1 (1: 10% to less than 20%)	herbicidal efficacy, Galinsoga parviflora (Galinsoga parviflora): 10 (10: 100%); herbicidal efficacy, Digitaria ciliaris (Digitaria ciliaris [7]): 10 (10: 100%)
N#Cc1cnn(-c2nn3c(c2Cl)CCCC3)c1NC(=O)Cc1ccc(F)cc1 [Compound 15]	10 (10: 100%)	10 (10: 100%)	10 (10: 100%)	10 (10: 100%)	9 (9: 90% to less than 100%)	10 (10: 100%)	9 (9: 90% to less than 100%)	10 (10: 100%)	10 (10: 100%)	10 (10: 100%)	10 (10: 100%)	10 (10: 100%)	10 (10: 100%)	10 (10: 100%)	10 (10: 100%)	10 (10: 100%)	10 (10: 100%)	10 (10: 100%)	1 (1: 10% to less than 20%)	1 (1: 10% to less than 20%)	herbicidal efficacy, Galinsoga parviflora (Galinsoga parviflora): 10 (10: 100%); herbicidal efficacy, Digitaria ciliaris (Digitaria ciliaris [7]): 10 (10: 100%)
